Measured values: ChEMBL document CHEMBL4483862, “Open-source discovery of chemical leads for next-generation chemoprotective antimalarials” (2018)

System: Plasmodium berghei
Test: Luciferase/luciferin-expressing antifolate-resistant parasites were used to infect a culture of HepG2 cells that were pre-incubated with compounds. Infected hepatocytes emit light due to the luciferase reaction. Assay results are presented as the percent inhibition of light emission compared to control. […]
Format: functional
Settings: sporozoite; for IC90: read-out: LUCIFERASE INFECTION ASSAY - IC90

Compound | IC90 [µM] | also measured
CC[n+]1ccccc1C=Cc1ccc(N(C)C)cc1 | 6.2 | IC50 (HEPG2TOX_HILL_SLOPE 3.25, HEPG2TOX_R_SQUARED 0.92, PBLUC_HILL_SLOPE 1.1, PBLUC_R_SQUARED 0.874, read-out: LUCIFERASE INFECTION ASSAY - IC50): 0.835 µM
Cc1sc2nc(CSc3ccc([N+](=O)[O-])c(C(F)(F)F)c3)nc(O)c2c1C | 8.65 | IC50 (HEPG2TOX_HILL_SLOPE 3.24, HEPG2TOX_R_SQUARED 0.988, PBLUC_HILL_SLOPE 5.99, PBLUC_R_SQUARED 0.334, read-out: LUCIFERASE INFECTION ASSAY - IC50): 5.99 µM
Oc1cccc(-c2cnc3ccc(-c4cccc5ncccc45)nn23)c1 | > 10 | IC50 (HEPG2TOX_HILL_SLOPE 3.26, HEPG2TOX_R_SQUARED 0.941, PBLUC_HILL_SLOPE 1.24, PBLUC_R_SQUARED 0.528, read-out: LUCIFERASE INFECTION ASSAY - IC50): 1.84 µM
COc1ccc(OC)c(CCNc2nc3cnc(-c4cccs4)cc3n2C)c1 | 3.85 | IC50 (HEPG2TOX_HILL_SLOPE 3.25, HEPG2TOX_R_SQUARED 0.886, PBLUC_HILL_SLOPE 11.1, PBLUC_R_SQUARED 0.592, read-out: LUCIFERASE INFECTION ASSAY - IC50): 3.16 µM
CCCn1c(C)cc(C(=O)CN(C)S(=O)(=O)c2ccc(Cl)cc2)c1C | > 10 | IC50 (HEPG2TOX_HILL_SLOPE 3.32, HEPG2TOX_R_SQUARED 0.751, PBLUC_HILL_SLOPE 15.5, PBLUC_R_SQUARED 0.301, read-out: LUCIFERASE INFECTION ASSAY - IC50): 9.26 µM
Cc1cc(C)c(-c2csc(NC(=O)C3CC4CCCC(C3)C4=O)n2)c(C)c1 (configuration not stated) | > 10 | IC50 (HEPG2TOX_HILL_SLOPE 3.24, HEPG2TOX_R_SQUARED 0.936, PBLUC_HILL_SLOPE 1.48, PBLUC_R_SQUARED 0.583, read-out: LUCIFERASE INFECTION ASSAY - IC50): 2.93 µM
Fc1ccc(Oc2ccc(CNc3ncnc4nc[nH]c34)cn2)cc1 | > 10 | IC50 (HEPG2TOX_HILL_SLOPE 3.2, HEPG2TOX_R_SQUARED 0.895, PBLUC_HILL_SLOPE 3.02, PBLUC_R_SQUARED 0.0659, read-out: LUCIFERASE INFECTION ASSAY - IC50): 5.84 µM
CC(C)Oc1cccc(Nc2ncc(C(=O)c3cccc(-c4ccncc4)c3)[nH]2)c1 | 3.9 | IC50 (HEPG2TOX_HILL_SLOPE 3.28, HEPG2TOX_R_SQUARED 0.825, PBLUC_HILL_SLOPE 4.08, PBLUC_R_SQUARED 0.607, read-out: LUCIFERASE INFECTION ASSAY - IC50): 2.27 µM
O=C(Nc1cccc(Cl)c1)C1=COC2=NC(=O)N(Cc3cccc(Cl)c3)CCN12 | > 10 | IC50 (HEPG2TOX_HILL_SLOPE 3.25, HEPG2TOX_R_SQUARED 0.784, PBLUC_HILL_SLOPE 3.78, PBLUC_R_SQUARED 0.178, read-out: LUCIFERASE INFECTION ASSAY - IC50): 6.88 µM
CCCCCCCCCCOCC[N+]1(C)CCOCC1 | 7.47 | IC50 (HEPG2TOX_HILL_SLOPE 3.29, HEPG2TOX_R_SQUARED 0.591, PBLUC_HILL_SLOPE 1.92, PBLUC_R_SQUARED 0.78, read-out: LUCIFERASE INFECTION ASSAY - IC50): 2.38 µM
Cc1ccccc1OCCN(C)C(=O)NCCc1cccs1 | 4.09 | IC50 (HEPG2TOX_HILL_SLOPE 3.22, HEPG2TOX_R_SQUARED 0.951, PBLUC_HILL_SLOPE 11.1, PBLUC_R_SQUARED 0.17, read-out: LUCIFERASE INFECTION ASSAY - IC50): 3.35 µM
O=C(Nc1nc2ccccn2c1C(=O)NC1CCCC1)c1ccccc1 | 7.5 | IC50 (HEPG2TOX_HILL_SLOPE 3.22, HEPG2TOX_R_SQUARED 0.898, PBLUC_HILL_SLOPE 4.41, PBLUC_R_SQUARED 0.561, read-out: LUCIFERASE INFECTION ASSAY - IC50): 4.56 µM
Cn1ncc2c(N3CCN(CC(=O)Nc4nc(-c5c[nH]c6ccccc56)cs4)CC3)ncnc21 | 4.22 | IC50 (HEPG2TOX_HILL_SLOPE 3.32, HEPG2TOX_R_SQUARED 0.453, PBLUC_HILL_SLOPE 2.65, 8.86, PBLUC_R_SQUARED 0.123, 0.280, read-out: LUCIFERASE INFECTION ASSAY - IC50): 2.62 µM
COc1ccc(NCC2(c3ccnc(-c4ccccc4Cl)c3)CC2)cc1OC | 9.12 | IC50 (HEPG2TOX_HILL_SLOPE 3.27, HEPG2TOX_R_SQUARED 0.816, PBLUC_HILL_SLOPE 4.33, PBLUC_R_SQUARED 0.443, read-out: LUCIFERASE INFECTION ASSAY - IC50): 5.49 µM
c1ccc(-c2csc3nc(CN4CCCCC4)nc(Sc4nnc(-c5cccnc5)o4)c23)cc1 | 3.67 | IC50 (HEPG2TOX_HILL_SLOPE 3.21, 5.75, HEPG2TOX_R_SQUARED 0.957, 0.718, PBLUC_HILL_SLOPE 33.6, 11.3, PBLUC_R_SQUARED 0.628, 0.512, read-out: LUCIFERASE INFECTION ASSAY - IC50): 3.23 µM
O=C(CCn1cnc2ccccc2c1=O)Nc1ccc(Br)cn1 | 4.76 | IC50 (HEPG2TOX_HILL_SLOPE 3.2, HEPG2TOX_R_SQUARED 0.878, PBLUC_HILL_SLOPE 4.82, PBLUC_R_SQUARED 0.722, read-out: LUCIFERASE INFECTION ASSAY - IC50): 3.02 µM

Compound | IC90 [µM] | also measured
COc1cccc(CN2CCN3C=C(C(=O)Nc4ccc(OCc5ccccc5)cc4)OC3=NC2=O)c1 | > 10 | IC50 (HEPG2TOX_HILL_SLOPE 3.22, HEPG2TOX_R_SQUARED 0.229, read-out: LUCIFERASE INFECTION ASSAY - IC50): > 10 µM
CC(C)(C)c1ccc(-c2ccc(OCCCc3ccccn3)nc2)cc1 | > 9.52 | IC50 (HEPG2TOX_HILL_SLOPE 3.23, HEPG2TOX_R_SQUARED 0.98, PBLUC_HILL_SLOPE 2.82, PBLUC_R_SQUARED 0.72, read-out: LUCIFERASE INFECTION ASSAY - IC50): 6.22 µM
CCS(=O)(=O)c1ncc(Cl)c(C(=O)Nc2ccc(C(=O)OC)cc2)n1 | 4.66 | IC50 (HEPG2TOX_HILL_SLOPE 3.26, HEPG2TOX_R_SQUARED 0.643, PBLUC_HILL_SLOPE 9.13, PBLUC_R_SQUARED 0.474, read-out: LUCIFERASE INFECTION ASSAY - IC50): 3.67 µM
O=c1[nH]ncc(NCCCc2ccccc2)c1Cl | > 10 | IC50 (HEPG2TOX_HILL_SLOPE 3.21, 1.90, HEPG2TOX_R_SQUARED 0.492, 0.980, PBLUC_HILL_SLOPE 2.78, PBLUC_R_SQUARED 0.0147, read-out: LUCIFERASE INFECTION ASSAY - IC50): 8.32 µM
CCCn1c(NC(=O)C2CCN(S(=O)(=O)c3cccc(Cl)c3Cl)CC2)nc2ccccc21 | 6.16 | IC50 (HEPG2TOX_HILL_SLOPE 3.25, HEPG2TOX_R_SQUARED 0.759, PBLUC_HILL_SLOPE 100, PBLUC_R_SQUARED 0.016, read-out: LUCIFERASE INFECTION ASSAY - IC50): 6.02 µM
O=C(NNC(=O)c1cc2cc(Cl)ccc2[nH]1)c1ccc(S(=O)(=O)N2CCCC2)cc1 | 9.83 | IC50 (HEPG2TOX_HILL_SLOPE 3.29, HEPG2TOX_R_SQUARED 0.977, PBLUC_HILL_SLOPE 10.3, 16.0, PBLUC_R_SQUARED 0.127, 0.622, read-out: LUCIFERASE INFECTION ASSAY - IC50): 8.54 µM
CCOC(=O)C1=C(COC(=O)c2oc3ccc(OC)cc3c2C)NC(=O)NC1 | > 10 | IC50 (HEPG2TOX_HILL_SLOPE 3.23, HEPG2TOX_R_SQUARED 0.736, PBLUC_HILL_SLOPE 1.66, PBLUC_R_SQUARED 0.334, read-out: LUCIFERASE INFECTION ASSAY - IC50): > 10 µM
C1=C(c2ccccc2)CCN(Cc2cccc3cccnc23)C1 | 9.68 | IC50 (HEPG2TOX_HILL_SLOPE 3.29, HEPG2TOX_R_SQUARED 0.953, PBLUC_HILL_SLOPE 4.04, PBLUC_R_SQUARED 0.237, read-out: LUCIFERASE INFECTION ASSAY - IC50): 5.62 µM
Nc1ccc(-c2cnc3ccc(NCc4ccc(F)cc4)nn23)cc1 | 0.372 | IC50 (HEPG2TOX_HILL_SLOPE 3.34, HEPG2TOX_R_SQUARED 0.665, PBLUC_HILL_SLOPE 6.16, PBLUC_R_SQUARED 0.867, read-out: LUCIFERASE INFECTION ASSAY - IC50): 0.26 µM
COc1ccc(OCCN2CCN(c3ccnc4cc(Cl)ccc34)CC2)cc1 | > 10 | IC50 (HEPG2TOX_HILL_SLOPE 3.33, HEPG2TOX_R_SQUARED 0.981, PBLUC_HILL_SLOPE 2.57, PBLUC_R_SQUARED 0.319, read-out: LUCIFERASE INFECTION ASSAY - IC50): 5.62 µM
COc1c(Cl)cc(C(=O)Nc2nonc2-c2ccc(F)cc2)cc1Cl | 2.81 | IC50 (HEPG2TOX_HILL_SLOPE 3.32, HEPG2TOX_R_SQUARED 0.957, PBLUC_HILL_SLOPE 18.3, PBLUC_R_SQUARED 0.283, read-out: LUCIFERASE INFECTION ASSAY - IC50): 2.49 µM
Cc1noc(C)c1CSc1ccccc1C(=O)NNC(=O)c1ccc2ccccc2n1 | 6.77 | IC50 (HEPG2TOX_HILL_SLOPE 3.33, HEPG2TOX_R_SQUARED 0.906, PBLUC_HILL_SLOPE 141, PBLUC_R_SQUARED 0.0106, read-out: LUCIFERASE INFECTION ASSAY - IC50): 6.66 µM
CN(C)CCNc1nc(-c2ccco2)c2c(c1C#N)CCCC2 | > 10.6 | IC50 (HEPG2TOX_HILL_SLOPE 3.21, HEPG2TOX_R_SQUARED 0.873, PBLUC_HILL_SLOPE 1.18, PBLUC_R_SQUARED 0.659, read-out: LUCIFERASE INFECTION ASSAY - IC50): 3.31 µM
O=C(c1ccc(OCc2cccnc2)cc1)N1CCc2ccccc21 | > 10 | IC50 (HEPG2TOX_HILL_SLOPE 3.32, HEPG2TOX_R_SQUARED 0.856, read-out: LUCIFERASE INFECTION ASSAY - IC50): > 10 µM
COc1ccc(-c2ccnc3n[nH]c(-c4ccncc4)c23)cc1 | > 10 | IC50 (HEPG2TOX_HILL_SLOPE 3.34, HEPG2TOX_R_SQUARED 0.878, PBLUC_HILL_SLOPE 1.93, PBLUC_R_SQUARED 0.439, read-out: LUCIFERASE INFECTION ASSAY - IC50): 3.22 µM
